# Reference: patent publication US10428051B2 (priority 2015, dated 2019)
# Biological target: human σ1 receptor (Homo sapiens, UniProt Q99720)
# Assay: biochemical
# Assay type: binding
# Set-up: μ and σ1 dual (binding to the σ1 receptor and the μ-opioid receptor expressed as Ki): key to the marks not given beside the values
# Chain of human σ1 receptor (Q99720 whole entry): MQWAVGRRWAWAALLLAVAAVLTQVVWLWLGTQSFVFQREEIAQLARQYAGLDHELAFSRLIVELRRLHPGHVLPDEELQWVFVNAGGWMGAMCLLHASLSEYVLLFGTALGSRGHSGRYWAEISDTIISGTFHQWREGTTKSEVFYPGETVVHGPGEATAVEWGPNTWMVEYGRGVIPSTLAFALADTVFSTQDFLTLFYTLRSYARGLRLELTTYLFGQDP
Compound,μ and σ1 dual (binding to the σ1 receptor and the μ-opioid receptor expressed as Ki),Ki [nM]
"CCC(=O)N(CC1(N2CCN(Cc3ccncc3)CC2)CCOCC1)c1ccccc1 [Example 106, N-phenyl-N-((4-(4-(pyridin-4-ylmethyl)piperazin-1-yl)tetrahydro-2H-pyran-4-yl)methyl)propionamide]",++,–
"CCC(=O)N(CC1(N2CCN(Cc3cncc(F)c3)CC2)CCOCC1)c1ccccc1 [Example 107, N-((4-(4-((5-fluoropyridin-3-yl)methyl)piperazin-1-yl)tetrahydro-2H-pyran-4-yl)methyl)-N-phenylpropionamide]",–,< 500
"CCC(=O)N(CC1(N2CCN(Cc3cncc(F)c3)CC2)CC1)c1ccccc1 [Example 122, N-((1-(4-((5-fluoropyridin-3-yl)methyl)piperazin-1-yl)cyclopropyl)methyl)-N-phenylpropionamide]",–,< 500
"CCC(=O)N(CC1(N2CCN(CCc3ncccc3F)CC2)CCOCC1)c1cccc(C(F)(F)F)n1 [Example 192, N-((4-(4-(2-(3-Fluoropyridin-2-yl)ethyl)piperazin-1-yl)tetrahydro-2H-pyran-4-yl)methyl)-N-(6-(trifluoromethyl)pyridin-2-yl)propionamide]",++,–
"CCC(=O)N(CC1(N2CCN(CC(C)C)CC2)CCOCC1)c1cccc(C#N)n1 [Example 85, N-(6-cyanopyridin-2-yl)-N-((4-(4-isobutylpiperazin-1-yl)tetrahydro-2H-pyran-4-yl)methyl)propionamide]",–,> 500
"CCC(=O)N(CC1(N2CCN(Cc3ccc(C(F)(F)F)nc3)CC2)CC1)c1ccccc1 [Example 113, N-phenyl-N-((1-(4-((6-(trifluoromethyl)pyridin-3-yl)methyl)piperazin-1-yl)cyclopropyl)methyl)propionamide]",++,–
"CCNC(=O)N(CC1(N2CCN(Cc3ccccc3)CC2)CCOCC1)c1ccccn1 [Example 49, 1-((4-(4-benzylpiperazin-1-yl)tetrahydro-2H-pyran-4-yl)methyl)-3-ethyl-1-(pyridin-2-yl)urea]",++,–
"CCOCCN1CCN(C2(CN(C(=O)CC)c3cccc(C#N)n3)CCOC(C)(C)C2)CC1 (stereo not shown) [Example 171, N-(6-cyanopyridin-2-yl)-N-((4-(4-(2-ethoxyethyl)piperazin-1-yl)-2,2-dimethyltetrahydro-2H-pyran-4-yl)methyl)propionamide]",–,> 500
"CCNC(=O)N(CC1(N2CCN(CCc3ccccc3)CC2)CCCCC1)c1ccccc1 [Example 50, 3-ethyl-1-((1-(4-phenethylpiperazin-1-yl)cyclohexyl)methyl)-1-phenylurea]",–,< 500
"CCC(=O)N(CC1(N2CCN(CCC(C)C)CC2)CCOCC1)c1ncccc1F [Example 155, N-(3-fluoropyridin-2-yl)-N-((4-(4-isopentylpiperazin-1-yl)tetrahydro-2H-pyran-4-yl)methyl)propionamide]",–,< 500
"CCC(=O)N(CC1(N2CCN(CCC(C)C)CC2)CCOCC1)c1cccc(C(F)(F)F)n1 [Example 137, N-((4-(4-isopentylpiperazin-1-yl)tetrahydro-2H-pyran-4-yl)methyl)-N-(6-(trifluoromethyl)pyridin-2-yl)propionamide]",–,< 100
"CCC(=O)N(CC1(N2CCN(CC(C)(C)OC)CC2)CCOCC1)c1cccc(C(F)(F)F)n1 [Example 191, N-((4-(4-(2-Methoxy-2-methylpropyl)piperazin-1-yl)tetrahydro-2H-pyran-4-yl)methyl)-N-(6-(trifluoromethyl)pyridin-2-yl)propionamide]",–,> 500
"CCC(=O)N(CC1(N2CCN(CCOC(C)C)CC2)CCOC(C)(C)C1)c1ncccc1F (stereo not shown) [Example 167, N-(3-fluoropyridin-2-yl)-N-((4-(4-(2-isopropoxyethyl)piperazin-1-yl)-2,2-dimethyltetrahydro-2H-pyran-4-yl)methyl)propionamide]",–,< 500
"CCC(=O)N(CC(C)(C)N1CCN(CCc2ncccc2F)CC1)c1ccccc1F [Example 71, N-(2-fluorophenyl)-N-(2-(4-(2-(3-fluoropyridin-2-yl)ethyl)piperazin-1-yl)-2-methylpropyl)propionamide]",++,–
"CCC(=O)N(CC1(N2CCN(CCOC(C)C)CC2)CCOC2(CCCC2)C1)c1cccc(C(F)(F)F)n1 (stereo not shown) [Example 174, N-((9-(4-(2-isopropoxyethyl)piperazin-1-yl)-6-oxaspiro[4.5]decan-9-yl)methyl)-N-(6-(trifluoromethyl)pyridin-2-yl)propionamide]",–,< 500
"CCC(=O)N(CC1(N2CCN(CC(C)C)CC2)CCOC(C)(C)C1)c1ncccc1F (stereo not shown) [Example 170, N-(3-fluoropyridin-2-yl)-N-((4-(4-isobutylpiperazin-1-yl)-2,2-dimethyltetrahydro-2H-pyran-4-yl)methyl)propionamide]",++,–
"CCNC(=O)N(CC1(N2CCN(Cc3ccccc3)CC2)CC1)c1ccccc1 [Example 52, 1-((1-(4-benzylpiperazin-1-yl)cyclopropyl)methyl)-3-ethyl-1-phenylurea]",–,< 500
"CCC(=O)N(CC1(N2CCN(CC(C)C)CC2)CCOCC1)c1ncccc1C#N [Example 62, N-(3-cyanopyridin-2-yl)-N-((4-(4-isobutylpiperazin-1-yl)tetrahydro-2H-pyran-4-yl)methyl)propionamide]",++,–
"CCC(=O)N(CC1(N2CCN(Cc3ncccc3F)CC2)CC1)c1ccccc1 [Example 120, N-((1-(4-((3-fluoropyridin-2-yl)methyl)piperazin-1-yl)cyclopropyl)methyl)-N-phenylpropionamide]",–,> 500
"CCC(=O)N(CC1(N2CCN(CC(=O)N3CCCCC3)CC2)CCOCC1)c1ccccc1 [Example 127, N-((4-(4-(2-oxo-2-(piperidin-1-yl)ethyl)piperazin-1-yl)tetrahydro-2H-pyran-4-yl)methyl)-N-phenylpropionamide]",–,> 500
"CCC(=O)N(CC1(N2CCN(Cc3ccccc3)CC2)CCOC(C)(C)C1)c1ncccc1C(F)(F)F (stereo not shown) [Example 67, N-((4-(4-benzylpiperazin-1-yl)-2,2-dimethyltetrahydro-2H-pyran-4-yl)methyl)-N-(3-(trifluoromethyl)pyridin-2-yl)propionamide]",–,< 500
"CC(C)(CN(C(=O)c1ccco1)c1ccccc1)N1CCN(CCc2ccccc2)CC1 [Example 44, N-(2-methyl-2-(4-phenethylpiperazin-1-yl)propyl)-N-phenylfuran-2-carboxamide]",–,< 100
"CCC(=O)N(CC1(N2CCN(CCC(C)C)CC2)CCOCC1)c1ccccn1 [Example 153, N-((4-(4-isopentylpiperazin-1-yl)tetrahydro-2H-pyran-4-yl)methyl)-N-(pyridin-2-yl)propionamide]",++,–
"CCC(=O)N(CC1(N2CCN(Cc3ccc(F)c(F)c3)CC2)CC1)c1ccccc1 [Example 117, N-((1-(4-(3,4-difluorobenzyl)piperazin-1-yl)cyclopropyl)methyl)-N-phenylpropionamide]",–,< 100
"CCC(=O)N(CC1(N2CCN(C(C)c3ccc(F)cc3)CC2)CCOCC1)c1cccc(C(F)(F)F)n1 (stereo not shown) [Example 182, N-((4-(4-(1-(4-fluorophenyl)ethyl)piperazin-1-yl)tetrahydro-2H-pyran-4-yl)methyl)-N-(6-(trifluoromethyl)pyridin-2-yl)propionamide]",–,< 500
